In patent US20170240556A1, “BIFLUORODIOXALANE-AMINO-BENZIMIDAZOLE KINASE INHIBITORS FOR THE TREATMENT OF CANCER, AUTOIMMUNEINFLAMMATION AND CNS DISORDERS” (4SC DISCOVERY GMBH, priority 2012, published 2017):
pIC50: −log10 of the molar value.

Assays:
[1] = system: Wnt/β-catenin signaling pathway; test: Wnt reporter assay (CellSensor LEF/TCF-bla FreeStyle 293F cells); assay type: cell-based; conditions: Homo sapiens; LEF/TCF-bla 293F cells, LiCl and mWnt3a stimulation
Description: The Wnt reporter assay was performed in stably transfected human HEK293 cells. Wnt signaling was induced by administration of Wnt3a protein and read out by β-Lactamase mediated cleavage of CCF4-AM and subsequent fluorescent detection.
CellSensor LEF/TCF-bla FreeStyle 293F cells (invitrogen #K1677) contain a beta-lactamase reporter gene under control of the β-catenin/LEF/TCF binding elements stably integrated into FreeStyle 293F cells. This cell line can be used to detect antagonists of the Wnt/β-catenin signaling pathway when stimulated by mouse Wnt3a or LiCl. The detection of beta-lactamase is possible with LiveBLAzer FRET—B/G Loading Kit (invitrogen #K1095) with CCF4-AM as subtrate.
Culture Medium: DMEM Medium +10% dialyzed FBS (PAN 2102-P290310), +1% NEAA (PAA M11-003), +1% P/S (Penicillin/Streptomycin, PAA P11-010) +25 mM HEPES (PAA S11-001), +5 μg/ml Blasticidin (PAA P05-017).
Cells (CellSensor LEF/TCF-bla FreeStyle 293F, invitrogen K1677) were split with Culture Medium to reach a confluence at the beginning of the assay of 80-90%.
At start of the assay, cells were harvested from culture and resuspend in assay medium at density of 0,66*10̂6 cells/ml. Subsequently, 60μ1 cell suspension were pipetted in each well of a Poly-D-Lysine 96 well Plate (BD #354640, vertical rows are marked 1 through 12, horizontal lanes are marked A through H),
Plates were subsequently incubated at 37° C. for at least 2 h.
To stimulate with Wnt3a, overnight prestimulation of Wnt signalling pathway with LiCl is necessary. Subsequently, an 8M aqueous LiCl solution was diluted 1:200 in assay medium, and 30 μl of said diluted LiCl solution was plated into the appropriate wells (see below pipetting scheme). Plates were then incubated at 37° C. over night.
Subsequently, compounds and controls were prepared as follows: mWnt3a (R&D 1324-WN, dissolved in PBS+0.1% BSA to 40 μg/ml) was diluted 1:100 in assay medium (=400 ng/ml). Compounds (Cpd) were diluted to a concentration of 10 mM in DMSO to prepare dilution series in assay medium (final concentrations 30 μM, 10 μM, 3 μM, 1 μM, 0.3 μM, 0.1 μM, 0.03 μM and 0.01 μM), which were pipetted into the appropriate wells (see below pipetting scheme). For each dilution of each compound, 3 replicates were tested. Final DMSO concentration was 0.3%.
LiCl and mWnt3a stimulated cells were used as High control (HC), unstimulated cells were used as low control, a blank was prepared from cell free medium plus mWnt3a, and a functional control was prepared with a known Wnt inhibitor (e.g. PKF118-310), final concentrations were as above.
Subsequently, the well was incubated for 5 h at 37° C.
At t=23 hours, FRET reagent mix (Loading Kit with CCF4-AM, Life Technologies #K1096) was prepared; per plate: 138 μl Solution B, 13.8 μl FRET-reagent, and 2300 μl Solution C. 24 μl FRET reagent mix were plated to each well, subsequently plates were incubated for at least 2 h in the dark (it is possible to incubate over night). Subsequently, plates were measured in the BMG FluorStar® plate reader at an emission waveltengths of 460 and 520 nm and with an excitation wavelength of 405 nm.
To determine potential cytotoxicity of the compounds, plates were centrifuge and the supernatant was discarded by dumping the plates. Subsequently, 100 μl Opti-MEM and 50 μl ViaLight (Lonza #LT07-321) Lysis Buffer were added to each well, followed by incubation for 10 min at room temperature (25° C.). Subsequently, 100 μl ViaLight reagent were added to each well, followed by incubation for 2 min at room temperature (25° C.) in the dark. Optionally, 200 μl of the obtained suspension were transferred to a white 96 well plate. The luminescence was measured with a Tecan Ultra plate reader.

[2] = system: Hedgehog signaling pathway; test: Hedgehog reporter assay (Gli Reporter - NIH3T3 Cell Line); assay type: cell-based; conditions: Mus musculus; Gli reporter NIH3T3 cells, murine SHH stimulation, 24 h; read-out: HH Assay
Description: In order to investigate the potency of test compounds to inhibit the Hedgehog signaling pathway, a Gli-Reporter assay was performed.
The “Gli Reporter—NIH3T3 Cell Line” contains the firefly luciferase gene under the control of Gli responsive elements stably integrated into murine NIH3T3 cells (cells purchased from Amsbio). The luciferase expression correlates with activation of the hedgehog signaling pathway. This cell line is validated for its response to stimulation with murine Sonic Hedgehog and to treatment with inhibitors of the hedgehog signaling pathway. A multiplexed viability assay was used to discriminate inhibition on the pathway activity from cell toxicity.
Growth Medium: DMEM, 10% Calf Serum, 1% Penicillin/Streptomycin 500 μg/ml Geneticin (G418 Stock 50 mg/ml).
25.000 cells per well were seeded into a white 96 well plate in 100 μl growth medium and incubated over night at 37° C. and 5% CO2. After removing the supernatant the test compounds and controls (known GLI inhibitor, e.g. GANT-61) were added in different concentrations in a final volume of 45 μl and incubated for 1 h at 37° C. and 5% CO2. For the stimulation of the Hedgehog pathway 5 μl of 10 μg/ml concentrated murine sonic hedgehog (SHH) was added to the cells. A final concentration of 1 μg/ml mSHH and 0.1% DMSO was reached per well. After incubation for 24 h at 37° C. the cells were investigated for viability and reporter activity.
Viability: For the determination of the viability of the treated cells the CellTiter-Fluor Kit from Promega was used. Essentially, only proteases of viable cells are able to cleave the cell-permeant substrate Gly-Phe-AFCoumarin (GF-AFC). By this cleavage the fluorescent AFC is set free and can be detected in a fluorescence reader. For this assay 10 μl of GF-AFC substrate (CellTiter-Fluor, Promega #G6082) was diluted in 2 ml assay buffer from the CellTiter-Fluor Kit and 10 μl of this dilution was added per well to the cells and incubated for 30 min at 37° C. The fluorescence was measured with excitation at 380-400 nm and emission at 505 nm.
Reporter activity: The firefly luciferase reporter activity was detected with the ONE-Glo™ Luciferase Assay System from Promega. For this assay 50 μl ONE-Glo luciferase reagent (Promega #E6120, contains cell lysis buffer and luciferin) was added to each well and incubated at room temperature for 5 min. Luminescence was detected in a plate reader and served as a degree for reporter activity.

pIC50 [1]: > 5.30
pIC50 [2]: ≥ 6.30
Structure (SMILES): COc1cccc(C(=O)Nc2nc3cc4c(cc3[nH]2)OC(F)(F)O4)c1 [Compound 56, N-(2,2-difluoro-5H-[1,3]dioxolo[4′,5′:4,5]benzo[1,2-d]imidazol-6-yl)-3-methoxybenzamide]
